The target of the first assay is T1, Rat thymus glucocorticoid receptor (Rattus norvegicus, UniProt P06536).
T1 construct: The supernatant cytosol is used as the source of receptor; from tissue; host or cells: thymus of male adrenalectomised rats, 100,000 g supernatant cytosol
T1 sequence (P06536 1-795): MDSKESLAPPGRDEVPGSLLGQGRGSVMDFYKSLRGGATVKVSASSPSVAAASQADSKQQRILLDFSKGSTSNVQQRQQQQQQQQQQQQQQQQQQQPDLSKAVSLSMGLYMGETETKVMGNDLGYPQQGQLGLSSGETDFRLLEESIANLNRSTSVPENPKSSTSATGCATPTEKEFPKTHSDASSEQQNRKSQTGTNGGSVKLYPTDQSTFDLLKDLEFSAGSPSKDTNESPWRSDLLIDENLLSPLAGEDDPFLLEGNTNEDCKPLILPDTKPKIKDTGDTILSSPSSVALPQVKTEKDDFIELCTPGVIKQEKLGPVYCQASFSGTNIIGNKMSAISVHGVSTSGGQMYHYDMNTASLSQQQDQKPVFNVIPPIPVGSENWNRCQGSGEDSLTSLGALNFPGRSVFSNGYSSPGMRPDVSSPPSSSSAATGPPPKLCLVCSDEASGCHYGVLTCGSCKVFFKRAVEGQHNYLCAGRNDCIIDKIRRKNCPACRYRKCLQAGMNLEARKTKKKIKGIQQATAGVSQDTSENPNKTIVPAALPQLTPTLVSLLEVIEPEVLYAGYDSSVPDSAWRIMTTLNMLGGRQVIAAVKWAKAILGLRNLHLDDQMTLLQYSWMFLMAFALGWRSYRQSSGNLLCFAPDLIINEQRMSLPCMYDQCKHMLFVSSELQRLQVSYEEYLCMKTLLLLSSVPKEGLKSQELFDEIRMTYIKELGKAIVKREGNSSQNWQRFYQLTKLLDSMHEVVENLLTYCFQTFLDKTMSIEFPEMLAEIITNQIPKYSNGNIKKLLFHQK
Description: Steroid binding to the rat thymus glucocorticoid receptor ([3H] dexamethasone displacement).
Details: not given
The text has this: GLUCOCORTICOID AGONIST ACTIVITY
STEROID BINDING TO THE RAT THYMUS GLUCOCORTICOID RECEPTOR
Thymi of male adrenalectomised rats are removed and homogenised in 3-(N-morpholino)propanesulphonic acid dithiothreitol buffer, and centrifuged at 100,000 g. The supernatant cytosol is used as the source of receptor. […] Bound [^3 H] dexamethasone is separated from free dexamethasone by a dextran coated charcoal technique and is quantified by liquid scintillation counting.
For `CS[C@@]12OC(C)(C)O[C@@H]1C[C@H]1[C@@H]3CCC4=CC(=O)C=C[C@]4(C)[C@@]3(F)[C@@H](O)C[C@@]12C` [9α-Fluoro-11β-hydroxy-16α,17α-isopropylidenedioxy-17β-(methylthio)androsta-1,4-dien-3-one], the IC50 amounted to 1.6 nM.
The compound `CCC[C@@H]1O[C@@H]2C[C@H]3[C@@H]4C[C@H](F)C5=CC(=O)C=C[C@]5(C)[C@@]4(F)[C@@H](O)C[C@]3(C)[C@]2(SCF)O1` [(20R)-16α,17α-Butylidenedioxy-6α,9α-difluoro-11β-hydroxy-17β-(fluoromethylthio)androsta-1,4-dien-3-one] returned an IC50 of 2.7 nM.
On to `CCC[C@@H]1O[C@@H]2C[C@H]3[C@@H]4C[C@H](F)C5=CC(=O)C=C[C@]5(C)[C@@]4(F)[C@@H](O)C[C@]3(C)[C@]2(SC)O1` [(20R)-16α,17α-butylidenedioxy-6α,9α-difluoro-11β-hydroxy-17β-(methylthio)-androsta-1,4-dien-3-one], for which the IC50 was 3.7 nM.
On the same count and under the same terms, the value for `CCCC1O[C@@H]2C[C@H]3[C@@H]4CCC5=CC(=O)C=C[C@]5(C)[C@@]4(F)[C@@H](O)C[C@]3(C)[C@]2(Sc2ccccn2)O1` (stereo partly drawn) [(20R,S)-16α,17α-Butylidenedioxy-9α-fluoro-11β-hydroxy-17β-(2-pyridylthio)androsta-1,4-dien-3-one] was 11.3 nM.

The assay is the same for the next values; noted with them: 4 nM [3H] dexamethasone, 24 hours at 4° C., rat thymus cytosol; read-out: IC50 (concentration reducing [3H] dexamethasone binding by 50%).
Regarding `CC1(C)O[C@@H]2C[C@H]3[C@@H]4C[C@H](F)C5=CC(=O)C=C[C@]5(C)[C@@]4(F)[C@@H](O)C[C@]3(C)[C@]2(SCF)O1` [6α,9α-Difluoro-11β-hydroxy-16α,17α-isopropylidenedioxy-17β-(fluoromethylthio)androsta-1,4-dien-3-one], the IC50 is 4.1 nM.
Take `CS[C@@]12OC(C)(C)O[C@@H]1C[C@H]1[C@@H]3C[C@H](F)C4=CC(=O)C=C[C@]4(C)[C@@]3(F)[C@@H](O)C[C@@]12C` [6α,9α-Difluoro-11β-hydroxy-16α,17α-isopropylidenedioxy-17β-(methylthio)androsta-1,4-dien-3-one]: the IC50 was 3.2 nM.
`CC1(C)O[C@@H]2C[C@H]3[C@@H]4CCC5=CC(=O)C=C[C@]5(C)[C@@]4(F)[C@@H](O)C[C@]3(C)[C@]2(S(C)(=O)=O)O1` [9α-Fluoro-11β-hydroxy-16α,17α-isopropylidene-dioxy-17β-methylsulphonylandrosta-1,4-dien-3-one]: the IC50 came out at 3.8 nM.
Still for that read-out and setting: the figure for `CC1(C)O[C@@H]2C[C@H]3[C@@H]4CCC5=CC(=O)C=C[C@]5(C)[C@@]4(F)[C@@H](O)C[C@]3(C)[C@]2(Sc2ccccn2)O1` [9α-Fluoro-11β-hydroxy-16α,17α-isopropylidenedioxy-17β-(2-pyridylthio)androsta-1,4-dien-3-one] is 27 nM; for `CCC[C@@H]1O[C@@H]2C[C@H]3[C@@H]4C[C@H](F)C5=CC(=O)CC[C@]5(C)[C@@]4(F)[C@@H](O)C[C@]3(C)[C@]2(SCF)O1` [(20R)-6α,9α-Difluoro-11β-hydroxy-16α,17α-butylidenedioxy-17β-fluoromethylthioandrost-4-en-3-one] it is 3 nM.
For the compound `CCC[C@@H]1O[C@@H]2C[C@H]3[C@@H]4CCC5=CC(=O)C=C[C@]5(C)[C@@]4(F)[C@@H](O)C[C@]3(C)[C@]2(SCF)O1` [(20R)-16α,17α-Butylidenedioxy-9α-fluoro-11β-hydroxy-17β-(fluoromethylthio)androsta-1,4-dien-3-one], the IC50 worked out at 7.5 nM.
As to `CCC[C@@H]1O[C@@H]2C[C@H]3[C@@H]4CCC5=CC(=O)C=C[C@]5(C)[C@@]4(F)[C@@H](O)C[C@]3(C)[C@]2(SC)O1` [(20R)-16α,17α-Butylidenedioxy-9α-fluoro-11β-hydroxy-17β-(methylthio)androsta-1,4-dien-3-one], the IC50 was found to be 1.7 nM.
As to `C/C=C/[C@@H]1O[C@@H]2C[C@H]3[C@@H]4CCC5=CC(=O)C=C[C@]5(C)[C@@]4(F)[C@@H](O)C[C@]3(C)[C@]2(SC)O1` [(20R)-16α,17α-[(E)-2-Butenylidenedioxy]-9α-fluoro-11β-hydroxy-17β-(methylthio)androsta-1,4-dien-3-one], the IC50 stood at 2.6 nM.
The same measure, in the same setting: the value for `CCC[C@@H]1O[C@@H]2C[C@H]3[C@@H]4C[C@H](F)C5CC(=O)CC[C@]5(C)[C@@]4(F)[C@@H](O)C[C@]3(C)[C@]2(SC)O1` (stereo partly drawn) [(20R)-16α,17α-butylidenedioxy-6α,9α-difluoro-11β-hydroxy-17β-(methylthio)androstan-3-one] was 2.6 nM.
Regarding `CCC[C@@H]1O[C@@H]2C[C@H]3[C@@H]4CC(=O)C5=CC(=O)C=C[C@]5(C)[C@@]4(F)[C@@H](O)C[C@]3(C)[C@]2(SC)O1` [(20R)-16α,17α-butylidenedioxy-9α-fluoro-11β-hydroxy-17β-(methylthio)androsta-1,4-diene-3,6-dione], the IC50 stood at 2.4 nM.
Take `CCCC1O[C@@H]2C[C@H]3[C@@H]4CCC5=CC(=O)C=C[C@]5(C)[C@@]4(F)[C@@H](O)C[C@]3(C)[C@]2(SC(C)C)O1` (stereo partly drawn) [(20R,S)-16α,17α-Butylidenedioxy-9α-fluoro-11β-hydroxy-17β-(isopropylthio)androsta-1,4-dien-3-one]: the IC50 is 5.5 nM.
On to `CCCC1O[C@@H]2C[C@H]3[C@@H]4CCC5=CC(=O)C=C[C@]5(C)[C@@]4(F)[C@@H](O)C[C@]3(C)[C@]2(SCC)O1` (stereo partly drawn) [(20R,S)-16α,17α-Butylidenedioxy-17β-ethylthio-9α-fluoro-11β-hydroxyandrosta-1,4-dien-3-one], for which the IC50 came to 4.1 nM.
Turning to `CCC[C@H]1O[C@@H]2C[C@H]3[C@@H]4C[C@H](F)C5=CC(=O)CC[C@]5(C)[C@@]4(F)[C@@H](O)C[C@]3(C)[C@]2(SC)O1` [(20S)-16α,17α-Butylidenedioxy-6α,9α-difluoro-11β-hydroxy-17β-(methylthio)androst-4-ene-3-one], the IC50 was determined as 2.9 nM.
Regarding `CCCC1O[C@@H]2C[C@H]3[C@@H]4CC(=O)C5=CC(=O)CC[C@]5(C)[C@@]4(F)[C@@H](O)C[C@]3(C)[C@]2(SC)O1` (stereo partly drawn) [(20S)-16α,17α-butylidenedioxy-6α,9α-fluoro-11β-hydroxy-(methylthio)androst-4-en-3,6-dione], the IC50 stood at 3.4 nM.

Staying with this assay, now noted: read-out: IC50 (concentration reducing [3H] dexamethasone binding by 50%); 4 nM [3H] dexamethasone, 24 hours at 4° C., rat thymus cytosol.
Take `CCC[C@@H]1O[C@@H]2C[C@H]3[C@@H]4CCC5=CC(=O)C=C[C@]5(C)[C@@]4(F)[C@@H](O)C[C@]3(C)[C@]2([S+](C)[O-])O1` (stereo partly drawn) [(20R)-9α-Fluoro-11β-hydroxy-16α,17α-butylidenedioxy-17β-methylsulphinylandrosta-1,4-dien-3-one]: the IC50 was 6.6 nM.
Same read-out and setting: the value for `CCC[C@H]1O[C@@H]2C[C@H]3[C@@H]4C[C@H](F)C5=CC(=O)C=C[C@]5(C)[C@@]4(F)[C@@H](O)C[C@]3(C)[C@]2(SCF)O1` [(20S)-6α,9α-difluoro-11β-hydroxy-16α,17α-butylidene-fluoromethylthioandrosta-1,4-dien-3-one] was 2.5 nM.

These data come from patent publication US5801165A, “Antiinflammatory, immunosuppressive and antialleric 16, 17-alkylidioxy-steroids” (Rhone-Poulenc Rorer Limited, priority 1992, dated 1998).
